# Measurements published in paper PMC5712521, “Dendrogenin A drives LXR to trigger lethal autophagy in cancers” (Nature Communications, 2017).
# How the values were obtained:
# WM115 cells = assay: DDA-induced cytotoxicity; format: cell-based; settings: Homo sapiens, WM-115; WM115 (H), BRaf V600E; 72 h; read-out: Cytotox EC50
# Experimental: (§1) Melanoma cells were seeded into 6-well plates at 60,000 cells per well and AML cells at 250,000 cells/ml. The cells were then treated with control solvent vehicle (1/1000 ethanol in water) or DDA. Where indicated, treated cells were incubated in the presence or absence of each inhibitor for time shown. Cell death was determined by the trypan blue exclusion assay. Cells were scraped and resuspended in trypan blue solution (0.25% (w/v) in PBS) and counted in a Malassez cell under light microscopy. Cell viability was then quantified by counting viable (trypan blue-negative) and dead cells (trypan blue-positive). […]
# (§2) (cytotox) and clonogenicity (clono) inhibition in a subset of human (H) and mouse (M)
# (§3) m elanom a cell lines. T he BRaf status in m elanom a cells lines is shown. […]
# WM35 cells = assay: DDA-induced cytotoxicity; format: cell-based; settings: Homo sapiens; WM35 (H), BRaf V600E; 72 h; read-out: Cytotox EC50
# Experimental: as §1, §2, §3
# HL60 cells = assay: Immunoblot densitometry; format: cell-based, human; settings: 5 µM DDA, 24 h
# Experimental: Immunoblotting was carried out as described previously. Proteins were separated on SDS-PAGE gels, electro-transferred onto polyvinylidene difluoride membranes and incubated overnight at 4 °C with the following antibodies: anti-Atg3, anti-Atg5 (D1G9), anti-Atg7 (D12B11), anti-Beclin (D40C5), anti-caspase-3 (Cell Signaling), anti-Bcl-2 (Millipore), anti-Bax (Millipore), anti-LC3 (Sigma-Aldrich), anti-LXRα (SantaCruz), anti-LXRβ (SantaCruz), anti-Nur77 (Active motif), anti-NOR1 (R&D systems), anti-PARP (Cell Signaling), anti-Vps34 (Cell Signaling), or anti-Actin (Millipore). For visualization, an ECL plus kit (Amersham Biosciences) was used, and chemiluminescence was measured by autoradiography (Supplementary Fig. 9). Specific bands were quantified with ImageQuant software. […]
# (n=16- 20 mice/group) engrafted with KG1 cells or HL60 cells were treated with DDA (20 mg/kg/day, i.p.) or solvent vehicle (control). Tumor growth was monitored over time and was analyzed for significance using repeated measures ANOVA (***P<0.001). The mean tumor volumes ± SEM are shown. e Average tumor weight at the end of the experiments in d. *P<0.5, **P<0.01, ANOVA. f Mean tumor volumes measured at the end of the experiments for HL60 and KG1 graf ted into NOD/SCID or NMRI-Fo x1 -nude mice treated with DDA (40 mg/kg/day, p.o. or 20 mg/kg/day, i.p.) or solvent vehicle (control) (n=10- 20 mice per group). […]
# B16F10 cells = assay: Cell cycle analysis by flow cytometry; format: cell-based, mouse; settings: 5 µM DDA, 48 h
# Experimental: Control and DDA-treated cells were fixed in 70% ethanol and then washed with PBS. Cells were incubated with 100 μg/ml RNase A for 30 min at 37 °C, permeabilized with 0.25% Tween-20, and stained with 50 μg/ml propidium iodide (PI) for 30 min at 37 °C. The DNA content of stained cells was analyzed by flow cytometry. The fraction of cells in sub-G1 phase was calculated using flowJo software (Ashland, Oregon). Data were obtained from 10^5 viable cells. […]
smiles,measurement,setting,value
"CC(C)CCC[C@@H](C)[C@H]1CC[C@H]2[C@@H]3C[C@@H](NCCc4cnc[nH]4)[C@@]4(O)C[C@@H](O)CC[C@]4(C)[C@H]3CC[C@]12C [DDA, Dendrogenin A]",EC50,WM115 cells,2.2 ± 0.2 µM
same,EC50,WM35 cells,1.6 ± 0.1 µM
same,"NOR1 protein, densitometry relative to untreated",HL60 cells,1.9
same,"Nur77 protein, densitometry relative to untreated",HL60 cells,1.8
same,Cell cycle distribution: G0/G1,B16F10 cells,54.50%
same,Cell cycle distribution: G2/M,B16F10 cells,9.83%
same,Cell cycle distribution: S,B16F10 cells,9.68%
same,Cell cycle distribution: Sub G0/G1,B16F10 cells,25.03%
